Measured values: paper PMC3820767, “Turning Defense into Offense: Defensin Mimetics as Novel Antibiotics Targeting Lipid II” (PLoS Pathogens, 2013)

Key:
[1] = test system: Escherichia coli ATCC 25922; assay: Antibacterial killing, 96-well turbidimetric (modified vCC) assay; assay type: cell-based; details: for active against E.coli (IC100%): Table S3, concentration at which 100% killing occurred, no bacterial regrowth, No = not active
In short: (§1)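 For the S. pneumoniae strains, MIC values follow CLSI broth microdilution standards. The staphylococcal and E. coli killing assay instead pre-incubated bacteria with compound for 30 min in 10 mM phosphate buffer containing 5% DMSO before adding 2× Mueller-Hinton medium, monitoring growth over 12 hours.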

[2] = test system: Staphylococcus aureus ATCC 29213; assay: as above; assay type: cell-based
In short: as §1

[3] = Surface Plasmon Resonance binding to immobilized 3-Lipid II; details: SPR; for Binding on Lipid II?: Table S3, initial determination at 10 µM
In short: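 Binding was measured by Surface Plasmon Resonance on a BIAcore T100 instrument at 25°C. Peptides were injected over the sensor flow-cells at 30 µl/min in running buffer of 10 mM HEPES, 150 mM NaCl, 0.05% surfactant P20, pH 7.4 (±3 mM EDTA) with 10% DMSO. Control flow-cell signals were subtracted, surfaces were regenerated with 50 mM NaOH, and isotherms were fitted with BIAcore software.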

[4] = Cytotoxicity by MTT assay; assay type: cell-based, human; details: human, Caco-2 cells; Table S3; No = not cytotoxic; read-out: cytotoxic for Caco II (C50% survival)
Jurkat = assay: Cytotoxicity by MTT assay; assay type: cell-based, human
Caco-2 = assay: Cytotoxicity by MTT assay; assay type: cell-based, human
[5] = test system: Streptococcus pneumoniae MMX1195-ATCC 49619; assay: Broth microdilution susceptibility testing (CLSI); assay type: cell-based
Procedure: (§2) The antibacterial activity of defensin mimetics against Staphylococcus aureus ATCC 29213 and Escherichia coli 25922 was carried out in a 96-well turbidimetric assay essentially as described previously with the following modifications: bacteria were exposed for 30 min to compounds in 10 mM phosphate buffer containing 5% DMSO prior to addition of 2× Muller-Hinton medium. Bacterial growth was monitored for 12 hours and data were analyzed as described. Determination of MICs was performed by Micromyx, LLC (Kalamazoo, Michigan) according to CLSI standards.

[6] = test system: Staphylococcus aureus MMX100-ATCC 29213; assay: Broth microdilution susceptibility testing (CLSI); assay type: cell-based
Procedure: as §2

[7] = test system: Escherichia coli MMX102-ATCC 25922; assay: Broth microdilution susceptibility testing (CLSI); assay type: cell-based
Procedure: as §2

[8] = test system: Pseudomonas aeruginosa MMX103-ATCC 27853; assay: Broth microdilution susceptibility testing (CLSI); assay type: cell-based
Procedure: as §2

[9] = test system: Staphylococcus aureus (MRSA) MMX757; assay: Broth microdilution susceptibility testing (CLSI); assay type: cell-based
Procedure: as §2

[10] = test system: Enterococcus faecalis MMX101-ATCC 29212; assay: Broth microdilution susceptibility testing (CLSI); assay type: cell-based
Procedure: as §2

[11] = test system: Enterococcus faecalis (VRE) MMX848; assay: Broth microdilution susceptibility testing (CLSI); assay type: cell-based
Procedure: as §2

[12] = test system: Streptococcus pneumonia (PRSP) MMX884; assay: Broth microdilution susceptibility testing (CLSI); assay type: cell-based, Streptococcus pneumoniae
Procedure: as §2

[13] = test system: Staphylococcus aureus ATCC 29213; assay: Antagonization of defensin antibacterial activity by 3-Lipid II; assay type: cell-based; details: 50 µM defensin pre-incubated with 3-Lipid II at 1:1 molar ratio
Procedure: Antagonization of the antibacterial activity of defensins against Staphylococcus aureus ATCC 29213 was carried out in a 96-well turbidimetric assay essentially as described previously. Defensins (50 µM final concentration) were pre-incubated with 3-Lipid II at 1∶1, 1∶2.5 and 1∶5 defensin: Lipid II molar ratios for 30 min at RT. Following incubation, solutions were diluted two-fold in ten steps and bacteria were added. Defensin activity was neutralized by the addition of Mueller Hinton broth. Bacterial growth was monitored for 12 hours and data were analyzed as described.

[14] = concentration resulting in 100% killing after 30 min exposure, modified vCC assay

| Binding on Lipid II? [3] | Kd ([3]; immobilized 3-Lipid II) [µM] | MIC Streptococcus pneumoniae 1195-49619 [5] [µg/mL] | MIC Staphylococcus aureus 100-29213 [6] [µg/mL] | MIC Escherichia coli 102-25922 [7] [µg/mL] | MIC Pseudomonas aeruginosa 103-27853 [8] [µg/mL] | MIC Staphylococcus aureus (MRSA) 757-NA [9] [µg/mL] | MIC Enterococcus faecalis 101-29212 [10] [µg/mL] | MIC Enterococcus faecalis (VRE) 848-NA [11] [µg/mL] | MIC Streptococcus pneumonia (PRSP) 884-NA [12] [µg/mL] | Molecule | active against E.coli (IC100%) [1] | active against S.aureus (IC100%) ([2]; Table S3, concentration at which 100% killing occurred, no bacterial regrowth, No = not active) | IC50 [4] [µM] | Bacterial Killing E. coli [1, 14] [µM] | Bacterial Killing S. aureus [2, 14] [µM] | IC50 (Jurkat) [µM] | IC50 (Caco-2) [µM] | antagonization of bactericidal activity by Lipid II [13] |
| --- | --- | --- | --- | --- | --- | --- | --- | --- | --- | --- | --- | --- | --- | --- | --- | --- | --- | --- |
| No |  |  |  |  |  |  |  |  |  | OCC1c2ccccc2-c2ccccc21 [Compound 4121-0081, 9H-fluoren-9-ylmethanol] | No | No | 202 |  |  |  |  |  |
| Yes | 3.64 | >64 | 16 | >16 | >16 | 16 | 16 | 16 | >64 | CC[n+]1c(/C=C/C=C2C=C(/C=C/N(C)c3ccccc3)CC(C)(C)C/2)sc2ccccc21.[I-] [Compound 5107930, 2-[(1E)-3-[(1E)-5,5-dimethyl-3-[(E)-2-[methyl(phenyl)amino]ethenyl]cyclohex-2-en-1-ylidene]prop-1-en-1-yl]-3-ethyl-1,3-benzothiazol-3-ium iodide] | 125 µM |  |  | 125 | 23.4 | > 223 | 27.9 |  |
|  |  |  |  |  |  |  |  |  |  | HNP-1: chemically synthesized wild-type human alpha-defensin Human Neutrophil peptide-1 |  |  |  |  |  |  |  | partly antagonized by one order of magnitude |
